Data reported in publication PMC11390726, “Automated design of multi-target ligands by generative deep learning” (Nature Communications, 2024).
One block for each compound: values may come before it.

Key:
FXR [1] = tested on: FXR; parameters: method as in earlier work; conditions: fine-tuning set; BindingDB; read-out: potency on target (EC50 for FXR); cited from earlier work
FFAR1 = biological target: T1, FFAR1 (Homo sapiens, UniProt O14842); parameters: method as in earlier work; conditions: fine-tuning set; BindingDB; read-out: potency on target (EC50 for FFAR1); cited from earlier work
T1 construct: expressed in transfected cells
T1 sequence (O14842 whole entry): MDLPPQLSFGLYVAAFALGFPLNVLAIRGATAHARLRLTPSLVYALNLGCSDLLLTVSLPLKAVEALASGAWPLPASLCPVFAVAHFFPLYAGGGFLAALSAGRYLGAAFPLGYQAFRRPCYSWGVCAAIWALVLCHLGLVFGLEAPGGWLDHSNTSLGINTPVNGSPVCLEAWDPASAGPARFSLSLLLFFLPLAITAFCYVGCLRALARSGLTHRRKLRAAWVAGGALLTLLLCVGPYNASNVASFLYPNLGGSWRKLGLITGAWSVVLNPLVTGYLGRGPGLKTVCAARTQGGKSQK

FXR [2] = biological target: T2, FXR (Homo sapiens, UniProt Q96RI1); assay: Gal4-hybrid reporter gene assay FXR; format: cell-based; conditions: mean, n ≥ 3
T2 construct: expressed in transfected cells; host or cells: HEK293T
T2 sequence (Q96RI1 262-486 limits assumed): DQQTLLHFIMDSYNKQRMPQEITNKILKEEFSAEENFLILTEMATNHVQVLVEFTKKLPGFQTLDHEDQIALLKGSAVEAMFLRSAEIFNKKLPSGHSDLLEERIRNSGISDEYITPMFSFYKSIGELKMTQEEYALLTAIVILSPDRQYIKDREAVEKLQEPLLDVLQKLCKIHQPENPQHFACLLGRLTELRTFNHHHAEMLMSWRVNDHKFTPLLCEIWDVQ
Description: The dual ligand candidates were characterized in functional assays for the targets of interest using cellular Gal4-hybrid reporter gene assays[43] to determine FXR, THRβ and PPARδ modulation and an enzyme activity assay[44] with the fluorogenic substrate PHOME to test sEH inhibition (Table 1).
After 24 h, the medium was changed to Opti-MEM without supplements. Transient transfection was performed using Lipofectamine LTX reagent (Invitrogen, Carlsbad, CA, USA) according to the manufacturer’s protocol with pFR-Luc (100 ng/well) as reporter plasmid, pRL-SV40 (2 ng/well) for normalization of transfection efficiency and cell growth, and one pFA-CMV-hNR-LBD clone coding for the hinge region and ligand binding domain (LBD) of the NR of interest. Five hours after transfection, the cells were incubated with Opti-MEM supplemented with penicillin (100 U/mL) and streptomycin (100 µg/mL), additionally containing 0.1% DMSO and the respective test compound or 0.1% DMSO alone as untreated control. After overnight (14–16 h) incubation, luminescence was measured using the Dual-Glo® Luciferase Assay System (Promega, Madison, WI, USA) according to the manufacturer’s protocol with a Tecan Spark® 10 M multimode microplate reader. Relative light units (RLU) for normalization of transfection efficiency and cell growth were calculated by dividing firefly luminescence by renilla luminescence and multiplication by 1000. Fold activation was obtained by dividing the mean RLU of a test compound at a respective concentration by the mean RLU of the untreated control. All samples were tested in duplicates in at least three biologically independent experiments. For dose response curve fitting and calculation of the EC50/IC50 values, the equation “[Agonist]/[Inhibitor] vs. response – Variable slope (four parameters)” was used in GraphPad Prism 7.

THRβ [3] = biological target: T3, THRβ (Homo sapiens, UniProt P10828); assay: Gal4-hybrid reporter gene assay THRβ; format: cell-based; conditions: for THRβ agonism: at non-toxic concentrations
T3 construct: expressed in transfected cells; host or cells: HEK293T
T3 sequence (P10828 217-461 limits assumed): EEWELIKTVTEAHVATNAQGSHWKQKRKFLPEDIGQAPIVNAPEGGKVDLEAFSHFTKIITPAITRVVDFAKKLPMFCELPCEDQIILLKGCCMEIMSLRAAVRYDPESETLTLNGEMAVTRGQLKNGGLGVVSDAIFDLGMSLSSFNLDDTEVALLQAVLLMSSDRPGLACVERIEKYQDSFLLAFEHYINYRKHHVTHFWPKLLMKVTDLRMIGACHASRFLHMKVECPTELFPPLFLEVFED
From the text: (§1) Compound 7 was originally designed with tert-butyloxy motif which was replaced by tert-butyl for improved chemical stability. The dual ligand candidates were characterized in functional assays for the targets of interest using cellular Gal4-hybrid reporter gene assays[43] to determine FXR, THRβ and PPARδ modulation and an enzyme activity assay[44] with the fluorogenic substrate PHOME to test sEH inhibition (Table 1). In vitro characterization of the CLM designed dual FXR/sEH modulators 1–3 confirmed engagement of both targets by all three compounds with sub-micromolar to low micromolar potencies. […] All designed PPARδ/sEH modulators (7–9) were confirmed as dual ligands of the intended targets. 7 emerged as remarkably potent sEH inhibitor endowed with micromolar PPARδ agonist activity.
HEK293T cells (ATCC, CRL-1573) were cultured in Dulbecco’s modified eagle medium (DMEM), high glucose, supplemented with 10% FCS, sodium pyruvate (1 mM), penicillin (100 U/mL), and streptomycin (100 µg/mL) to 70–80% confluence at 37 °C and 5% CO2 and seeded in clear 96-well plates with a density of 40,000 cells/well. After 24 h, the medium was changed to Opti-MEM without supplements. Transient transfection was performed using Lipofectamine LTX reagent (Invitrogen, Carlsbad, CA, USA) according to the manufacturer’s protocol with pFR-Luc (100 ng/well) as reporter plasmid, pRL-SV40 (2 ng/well) for normalization of transfection efficiency and cell growth, and one pFA-CMV-hNR-LBD clone coding for the hinge region and ligand binding domain (LBD) of the NR of interest. Five hours after transfection, the cells were incubated with Opti-MEM supplemented with penicillin (100 U/mL) and streptomycin (100 µg/mL), additionally containing 0.1% DMSO and the respective test compound or 0.1% DMSO alone as untreated control. After overnight (14–16 h) incubation, luminescence was measured using the Dual-Glo® Luciferase Assay System (Promega, Madison, WI, USA) according to the manufacturer’s protocol with a Tecan Spark® 10 M multimode microplate reader. Relative light units (RLU) for normalization of transfection efficiency and cell growth were calculated by dividing firefly luminescence by renilla luminescence and multiplication by 1000. Fold activation was obtained by dividing the mean RLU of a test compound at a respective concentration by the mean RLU of the untreated control. All samples were tested in duplicates in at least three biologically independent experiments. For dose response curve fitting and calculation of the EC50/IC50 values, the equation “[Agonist]/[Inhibitor] vs. response – Variable slope (four parameters)” was used in GraphPad Prism 7. The following pFA-CMV-hNR-LBD clones and reference ligands were used: THRβ (pFA-CMV-hTHRβ-LBD[71], 1 µM T3), PPARδ (pFA-CMV-hPPARδ-LBD[72], 1 µM L-165,041), FXR (pFA-CMV-hFXR-LBD[73], 1 µM GW4064).

THRβ [4] = tested on: THRβ; parameters: method as in earlier work; conditions: fine-tuning set; BindingDB; read-out: potency on target (EC50 for THRβ); cited from earlier work
sEH [5] = biological target: T4, sEH (Homo sapiens, UniProt P34913); assay: sEH enzyme activity assay with fluorogenic substrate PHOME; format: biochemical; conditions: mean, n ≥ 3
T4 construct: His tag (inferred from HisTrap purification with imidazole elution); made in house; own inference
T4 sequence (P34913 1-555): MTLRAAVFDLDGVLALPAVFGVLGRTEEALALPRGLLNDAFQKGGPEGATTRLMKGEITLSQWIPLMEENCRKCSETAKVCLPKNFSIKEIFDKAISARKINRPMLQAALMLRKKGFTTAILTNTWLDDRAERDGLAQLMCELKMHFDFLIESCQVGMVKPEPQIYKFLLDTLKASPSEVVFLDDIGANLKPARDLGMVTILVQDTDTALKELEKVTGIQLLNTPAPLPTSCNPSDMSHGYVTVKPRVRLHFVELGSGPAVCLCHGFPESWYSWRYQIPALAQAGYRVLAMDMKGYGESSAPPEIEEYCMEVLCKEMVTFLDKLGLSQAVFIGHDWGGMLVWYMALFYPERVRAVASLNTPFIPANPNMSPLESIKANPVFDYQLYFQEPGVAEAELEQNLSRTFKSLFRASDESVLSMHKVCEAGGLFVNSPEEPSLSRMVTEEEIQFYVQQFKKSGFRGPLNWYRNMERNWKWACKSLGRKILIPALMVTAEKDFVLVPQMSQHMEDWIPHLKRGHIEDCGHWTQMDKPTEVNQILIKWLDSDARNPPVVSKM
From the text: as §1
Soluble epoxide hydrolase (sEH) was purified as described by Hahn et al.[68] and Lukin et al.[69], respectively. Protein expression was carried out in 500 ml ZYP5052 autoinduction medium containing Kanamycin (100 mg/L) with lactose uptake-dependent induction. The fermentation procedure started at 37 °C and 200 rpm until the OD600 reached approximately 1.0. Then the temperature was reduced to 16 °C. After 24–36 h the cells (OD600 ≈ 15.0) were harvested by centrifugation at 5000 × g (4 °C, 20 min). Pellets were resuspended in a resuspension buffer containing Tris (50 mM), NaCl (0.5 M) and MgCl2 (10 mM) at pH 8 and sonicated twice for 15 s on ice. The sonicated suspension was centrifuged (18,000 × g, 30 min, 4 °C) and the supernatant was ultracentrifuged (100,000 × g, 1 h 10 min, 4 °C). The ultracentrifugation supernatant was loaded on a 5 ml HisTrap® FF (GE Healthcare, München, Germany) column at a flow rate of 2 ml/min and washed with washing buffer containing Tris (50 mM), NaCl (0.5 M), MgCl2 (10 mM), imidazole (20 mM) and DTT (3 mM) at pH 8, and eluted at 120 mM imidazole. The fractions containing hsEH after SDS-PAGE fraction analysis were pooled. The identity of hsEH was confirmed by Western Blotting and hsEH hydrolase activity assay. The inhibitory potency of the compounds was determined using a fluorescence-based enzyme activity assay in which PHOME (3-phenyl-cyano(6-methoxy-2-naphthalenyl)methylester-2-oxiraneacetic acid) is metabolized by sEH hydrolase towards a fluorescent naphthalene aldehyde. Dilution series of the compounds were incubated for 30 min with recombinant sEH (final protein concentration 3 nM). Subsequently, the fluorogenic substrate PHOME at final concentration of 50 μM was added, and the fluorescence was measured every minute for 45 min using a Tecan plate reader (ex: 360 nm, em: 465 nm; bandwidth 35 nm). Inhibition in percent was plotted against the logarithmic test compound concentration and IC50-values were calculated using the “log(Inhibitor) vs. Response – Variable slope (four parameters)” equation in GraphPad Prism 7.

sEH [6] = tested on: sEH; parameters: method as in earlier work; conditions: fine-tuning set; BindingDB; read-out: potency on target (IC50 for sEH); cited from earlier work
[7] = Gal4-hybrid reporter gene assay, mean, n ≥ 3

SMILES: CC(C)n1nc(C(=O)O)cc1C1CC1c1ccc(OCc2c(-c3c(Cl)cccc3Cl)noc2C2CC2)cc1Cl (stereo not shown)
EC50 (FXR [1]): 0.004 µM

SMILES: CC(C(=O)O)C(c1ccc2c(c1)OC(C1CCN(C(C)c3cc(F)ccc3OC(F)(F)F)CC1)CC2)C1CC1 (stereo not shown)
EC50 (FFAR1): 0.002 µM

EC50 (FXR [2]): 1 µM
THRβ: fold act. at 15 µM (THRβ [3]; Gal4-hybrid reporter gene assay, at 15 µM, mean, n ≥ 3): 5 fold
SMILES: CC(C)c1onc(-c2c(Cl)cccc2Cl)c1COc1ccc(Cc2ccc(OCC(=O)O)cc2)cc1 [Compound 6]
THRβ agonism (THRβ [3]): weak

SMILES: Cc1c(CC(=O)O)c2ccccc2n1Cc1ccc(O)c(C(C)C)c1
EC50 (THRβ [4]): 0.15 µM

EC50 (FXR [2]): 0.44 µM
IC50 (sEH [5]): 8.1 µM
SMILES: O=C(O)c1ccc(CNC(=O)c2ccc(-c3ccccc3)cc2)cc1 [Compound 2]

SMILES: CC(C)c1cc(Oc2c(Cl)cc(-n3nc(C#N)c(=O)[nH]c3=O)cc2Cl)nn(C)c1=O
EC50 (THRβ [4]): 0.04 µM

SMILES: CC#CC(CC(=O)O)c1ccc(NC(=O)C(=O)Nc2cccc(C(C)(C)C)c2)cc1 (stereo not shown)
EC50 (FFAR1): 0.004 µM

SMILES: CC#CC(CC(=O)O)c1ccc(OCc2cccc(CN(Cc3ccsc3)C3CCOCC3)c2)cc1 (stereo not shown)
EC50 (FFAR1): 0.008 µM

SMILES: Cc1cccc(C)c1OCc1noc(C(C)C)c1COc1ccc(C=Cc2cccc(C(=O)O)c2)c(Cl)c1
EC50 (FXR [1]): 0.056 µM

THRβ: activity (THRβ [3]; [7]): inactive
SMILES: CC(C)c1onc(-c2c(Cl)cccc2Cl)c1COc1ccc(C(=O)O)cc1 [Compound 4]
THRβ agonism (THRβ [3]): no detectable

SMILES: COc1ccc(F)c(C2CCC(COc3cccc(C(C4CC4)C(C)C(=O)O)c3)CC2)c1 (stereo not shown)
EC50 (FFAR1): 0.002 µM

SMILES: CC(C)(C)N1CCOC(COc2ccc(NC(=O)NC3CCCCC3)cc2)C1 (stereo not shown)
IC50 (sEH [6]): 0.077 µM

EC50 (FXR [2]): 11 µM
THRβ: activity (THRβ [3]; [7]): inactive
SMILES: CC(C)c1onc(-c2c(Cl)cccc2Cl)c1COc1ccc(CC(=O)O)cc1 [Compound 5]
THRβ agonism (THRβ [3]): no detectable

SMILES: CC(C)c1onc(-c2c(Cl)cccc2Cl)c1COc1ccc2sc(-c3cccc(C(=O)O)c3)cc2c1
EC50 (FXR [1]): 0.032 µM

SMILES: O=C(O)c1ccc2nc(N3CCCC(OCc4c(-c5ccccc5OC(F)(F)F)noc4C4CC4)CC3)sc2c1 (stereo not shown)
EC50 (FXR [1]): 0.007 µM

SMILES: CCOC(CC(=O)O)c1ccc(OC2CCc3c(Cl)cccc32)cc1 (stereo not shown)
EC50 (FFAR1): 0.005 µM

SMILES: CC(C)c1cc(Oc2c(Cl)cc(NC(=O)C(=O)O)cc2Cl)n[nH]c1=O
EC50 (THRβ [4]): 0.12 µM

SMILES: CC(C)c1noc(C2CCN(C(=O)NC3CC3c3ccccc3)CC2)n1 (stereo not shown)
IC50 (sEH [6]): 0.006 µM

SMILES: O=C(O)CCc1ccc(OC2CCN(C(=O)NC3C(c4ccccc4)C3c3ccccc3)CC2)cc1 (stereo not shown)
IC50 (sEH [6]): 0.002 µM

FXR: fold act. at 50 µM (FXR [2]; at 50 µM): 3.4 fold
IC50 (sEH [5]): 21 µM
SMILES: O=C(O)c1ccc(-c2ccc(C(=O)NCc3c(Cl)cccc3Cl)cc2)cc1 [Compound 3]

SMILES: O=C(NCc1ccc(Br)cc1OC(F)(F)F)c1ccc(OCCC(F)(F)F)nc1
IC50 (sEH [6]): 0.012 µM

SMILES: COc1ccc(CNc2c(-c3cc(Cl)ccn3)nc3ccc(Cl)cn23)cc1
EC50 (FXR [1]): 0.0003 µM

SMILES: CN(Cc1cccc(C(=O)O)c1)c1ccc(OCc2c(-c3c(Cl)cccc3Cl)noc2C2CC2)nc1C(F)(F)F
EC50 (FXR [1]): 0.009 µM

EC50 (FXR [2]): 0.37 µM
IC50 (sEH [5]): 4.1 µM
SMILES: CC(C)(C)c1ccc(CNC(=O)c2ccc(C(=O)O)cc2)cc1 [Compound 1]

SMILES: CC(C)c1cnn(-c2c(Cl)cccc2Cl)c1COc1ccc(C=Cc2cccc(C(=O)O)c2)c(Cl)c1
EC50 (FXR [1]): 0.02 µM
